Laboratory results: US20250388553A1 (Incyte Corporation, priority 2018, published 2025)
Counter-ions that a name gives are not always drawn. Like-named read-outs stand apart in the source and are kept apart here.

What was measured:
[1] = target: PI3Kγ (p110γ) Recombinant Human Protein (Homo sapiens (Human), UniProt P48736); test: PI3K-γ scintillation proximity assay; format: biochemical
[2] = target: PI3Kδ (p1106/p85a) Recombinant Human Protein (Homo sapiens (Human), UniProt O00329); test: PI3Kδ scintillation proximity assay; format: biochemical
[3] = tested on: Phosphorylated Ribosomal Protein S6 (RPS6) in THP-1 cells; test: THP-1 RPS6 ELISA assay; format: cell-based, Human
Description: Example A. THP-1 RPS6 ELISA Assay
To measure the Phosphorylated Ribosomal Protein S6 (RPS6) in cell lysates, THP-1 cells (Human Acute Monocytic Leukemia) are purchased from ATCC (Manassas, VA) and maintained in RPMI with 10% FBS (Gibco/Life Technologies, Carlsbad, CA). For the assay, THP-1 cells are serum starved overnight in RPMI, then plated in RPMI (2×10^5 cells/well in […]) into 96-well flat-bottom tissue culture treated plates (Corning, Corning, NY), in the presence or absence of a concentration range of test compounds. Covered plates are incubated for 2 hours at 37° C., 5% CO2 then treated with or without 10 nM MCP-1(MYBioSource, San Diego, CA) for 15 minutes at 37° C., 5% CO2. Plates are centrifuged at 1600 RPM and supernatants are removed. Cells are lysed in Lysis Buffer (Cell Signaling, Danvers, MA) with Protease Inhibitor (Calbiochem/EMD, Germany), PMSF (Sigma, St Louis MO), HALTS (Thermo Fisher, Rockford, IL) for 30 min on wet ice. Cell lysates are frozen at −80° C. before testing. The lysates are tested in the Human/Mouse/Rat Phospho-RPS6 ELISA (R&D Systems, Inc. Minn, MN). The plate is measured using a microplate reader (SpectraMax M5—Molecular Devices, LLC Sunnyvale, CA) set to 450 nm with a wavelength correction of 540. IC50 determination is performed by fitting the curve of inhibitor percent inhibition versus the log of the inhibitor concentration using the GraphPad Prism 5.0 software.
The compounds of the Examples were tested in the assays described in Examples A, B and C and found to have the IC50s are shown in Tables A1, A2, A3 and A4.

[4] = Table A3, scintillation proximity assay, recombinant human p110γ
[5] = Table A3, scintillation proximity assay, recombinant human PI3Kδ
[6] = Homo sapiens, Table A3, THP-1 cells, 10 nM MCP-1, phospho-RPS6 ELISA, read-out: PI3Kγ_THP1_RPS6_ELISA IC50
[7] = Table A4, scintillation proximity assay, recombinant human p110γ
[8] = Table A4, scintillation proximity assay, recombinant human PI3Kδ
[9] = Homo sapiens, Table A4, THP-1 cells, 10 nM MCP-1, phospho-RPS6 ELISA, read-out: PI3Kγ_THP1_RPS6_ELISA IC50

Sequence of PI3Kδ (p1106/p85a) Recombinant Human Protein (O00329 whole entry): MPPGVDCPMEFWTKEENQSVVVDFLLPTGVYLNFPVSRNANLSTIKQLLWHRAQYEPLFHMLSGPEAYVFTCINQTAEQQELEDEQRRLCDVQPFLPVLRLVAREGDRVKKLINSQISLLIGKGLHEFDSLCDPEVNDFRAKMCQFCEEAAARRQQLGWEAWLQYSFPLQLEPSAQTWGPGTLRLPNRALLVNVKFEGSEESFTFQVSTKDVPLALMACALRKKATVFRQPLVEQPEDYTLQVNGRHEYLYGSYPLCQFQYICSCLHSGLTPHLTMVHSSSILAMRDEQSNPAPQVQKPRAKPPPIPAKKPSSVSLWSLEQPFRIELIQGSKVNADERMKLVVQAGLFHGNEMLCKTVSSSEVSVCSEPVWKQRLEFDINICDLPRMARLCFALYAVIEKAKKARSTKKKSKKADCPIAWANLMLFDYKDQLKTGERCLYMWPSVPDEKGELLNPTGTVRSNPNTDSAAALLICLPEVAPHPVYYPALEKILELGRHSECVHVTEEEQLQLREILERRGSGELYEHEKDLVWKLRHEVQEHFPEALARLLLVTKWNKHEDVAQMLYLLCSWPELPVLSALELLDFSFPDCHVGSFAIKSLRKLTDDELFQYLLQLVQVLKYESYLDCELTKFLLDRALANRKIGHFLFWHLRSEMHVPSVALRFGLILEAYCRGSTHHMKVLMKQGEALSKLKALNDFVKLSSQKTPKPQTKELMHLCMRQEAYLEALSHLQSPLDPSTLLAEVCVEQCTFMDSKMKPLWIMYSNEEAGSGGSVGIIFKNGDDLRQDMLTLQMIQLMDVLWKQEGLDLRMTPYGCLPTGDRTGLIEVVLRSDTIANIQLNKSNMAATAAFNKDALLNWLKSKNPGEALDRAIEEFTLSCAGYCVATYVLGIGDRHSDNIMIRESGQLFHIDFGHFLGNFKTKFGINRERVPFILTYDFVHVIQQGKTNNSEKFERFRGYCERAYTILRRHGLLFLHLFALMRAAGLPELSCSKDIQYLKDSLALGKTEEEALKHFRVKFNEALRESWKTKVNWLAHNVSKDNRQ
Sequence of PI3Kδ (p1106/p85a) Recombinant Human Protein (P27986 whole entry partner): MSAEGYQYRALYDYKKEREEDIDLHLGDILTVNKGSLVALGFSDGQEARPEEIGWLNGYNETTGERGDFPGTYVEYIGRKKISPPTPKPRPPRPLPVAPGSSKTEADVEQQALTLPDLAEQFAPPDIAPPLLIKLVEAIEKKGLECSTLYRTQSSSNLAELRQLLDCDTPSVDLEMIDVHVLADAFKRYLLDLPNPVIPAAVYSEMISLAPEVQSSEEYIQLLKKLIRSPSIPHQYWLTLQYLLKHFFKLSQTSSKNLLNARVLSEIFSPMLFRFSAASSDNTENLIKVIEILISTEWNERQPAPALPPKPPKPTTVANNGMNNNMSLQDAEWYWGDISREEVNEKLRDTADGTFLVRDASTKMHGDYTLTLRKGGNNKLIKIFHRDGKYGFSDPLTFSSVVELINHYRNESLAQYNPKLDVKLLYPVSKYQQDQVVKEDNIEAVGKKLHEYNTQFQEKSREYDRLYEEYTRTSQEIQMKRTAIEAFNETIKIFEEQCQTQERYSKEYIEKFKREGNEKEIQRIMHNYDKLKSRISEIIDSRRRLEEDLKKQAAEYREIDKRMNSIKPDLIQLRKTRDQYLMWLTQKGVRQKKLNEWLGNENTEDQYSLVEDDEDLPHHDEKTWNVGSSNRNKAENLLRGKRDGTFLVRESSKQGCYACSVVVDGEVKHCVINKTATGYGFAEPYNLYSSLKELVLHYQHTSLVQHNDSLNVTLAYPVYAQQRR
Sequence of PI3Kγ (p110γ) Recombinant Human Protein (P48736 whole entry): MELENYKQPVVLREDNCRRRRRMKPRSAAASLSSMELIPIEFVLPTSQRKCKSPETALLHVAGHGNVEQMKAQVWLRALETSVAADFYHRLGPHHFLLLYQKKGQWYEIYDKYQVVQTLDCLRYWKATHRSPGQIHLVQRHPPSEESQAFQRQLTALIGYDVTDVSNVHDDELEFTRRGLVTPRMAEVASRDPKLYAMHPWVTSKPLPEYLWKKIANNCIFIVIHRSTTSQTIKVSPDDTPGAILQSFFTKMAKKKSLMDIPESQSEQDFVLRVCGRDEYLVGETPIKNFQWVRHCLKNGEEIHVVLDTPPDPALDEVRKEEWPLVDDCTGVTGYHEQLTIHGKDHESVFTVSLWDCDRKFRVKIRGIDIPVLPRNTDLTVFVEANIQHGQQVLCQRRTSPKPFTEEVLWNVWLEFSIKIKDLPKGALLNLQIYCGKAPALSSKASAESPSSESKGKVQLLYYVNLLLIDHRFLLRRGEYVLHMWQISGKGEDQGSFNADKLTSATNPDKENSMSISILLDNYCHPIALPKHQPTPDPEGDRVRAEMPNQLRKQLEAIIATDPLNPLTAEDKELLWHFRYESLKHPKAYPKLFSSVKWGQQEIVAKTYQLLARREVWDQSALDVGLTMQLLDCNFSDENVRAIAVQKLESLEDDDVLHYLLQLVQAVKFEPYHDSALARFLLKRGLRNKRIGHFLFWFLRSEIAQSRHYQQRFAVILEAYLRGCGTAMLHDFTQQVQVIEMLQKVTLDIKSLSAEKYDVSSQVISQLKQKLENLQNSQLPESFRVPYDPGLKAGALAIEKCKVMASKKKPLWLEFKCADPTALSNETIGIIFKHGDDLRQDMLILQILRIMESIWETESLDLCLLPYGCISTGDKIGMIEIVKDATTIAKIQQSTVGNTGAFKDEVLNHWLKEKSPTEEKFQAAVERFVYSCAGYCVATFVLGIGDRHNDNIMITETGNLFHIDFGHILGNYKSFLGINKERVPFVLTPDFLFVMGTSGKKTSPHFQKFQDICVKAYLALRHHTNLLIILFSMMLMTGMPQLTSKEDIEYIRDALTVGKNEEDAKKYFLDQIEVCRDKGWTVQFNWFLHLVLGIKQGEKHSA

SMILES | IC50 [1, 4] [µM] | IC50 [2, 5] [µM] | IC50 [3, 6] [nM] | IC50 [1, 7] [µM] | IC50 [2, 8] [µM] | IC50 [3, 9] [nM] | also measured
Cc1ccc(C(O)(C(N)=O)C(F)(F)F)cc1-c1cnc(N)c(-c2cccc(C(C)C)c2)n1 (stereo not drawn) [Example 90, 2-(3-(5-amino-6-(3-isopropylplienyl)pyrazin-2-yl)-4-methylphenyl)-3?3,3-trifluoro-2-hydroxypropanamide trifluoroacetate] | < 0.1 | 0.1 to 0.5 |  |  |  |  | IC50 ([3]; Table A3, THP-1 cells, 10 nM MCP-1, phospho-RPS6 ELISA, read-out: PI3Kγ_THP1_RPS6_ELISA IC50): 100 to 500 nM
Cc1ccc(C(O)(C(N)=O)C(F)(F)F)cc1-c1cnc(N)c(-c2ccc(C(C)(C)O)cc2)n1 (stereo not drawn) [Example 91, 2-(3-(5-amino-6-(4-(2-hydroxypropan-2-yl)phenyl)pyrazin-2-yl)-4-methylphenyl)-3,3,3-trifluoro-2-hydroxypropanamide trifluoroacetate] | < 0.1 | < 0.1 | < 100 |  |  |  | 
Cc1ccc(C(O)(C(N)=O)C(F)(F)F)cc1-c1cnc(N)c(-c2ccc(C3CC3)cc2)n1 (stereo not drawn) [Example 92, 2-(3-(5-amino-6-(4-cyclopropylphenyl)pyrazin-2-yl)-4-methylphenyl)-3,3,3-trifluoro-2-hydroxypropanamide trifluoroacetate] | < 0.1 | 0.1 to 0.5 | 100 to 500 |  |  |  | 
Cc1ccc(C(O)(C(N)=O)C(F)(F)F)cc1-c1cnc(N)c(-c2ccc(B(O)O)cc2)n1 (stereo not drawn) [Example 97, (4-(3-Amino-6-(5-(3-amino-1,1,1-trifluoro-2-hydroxy-3-oxopropan-2-yl)-2-methylphenyl)pyrazin-2-yl)phenyl)boronic Acid] | < 0.1 | < 0.1 | 100 to 500 |  |  |  | 
Cc1ccc(C(O)(CNC=O)C(F)(F)F)cc1-c1cnc(N)c(-c2cn[nH]c2)n1 (stereo not drawn) [Example 103, N-(2-(3-(5-amino-6-(1H-pyrazol-4-yl)pyrazin-2-yl)-4-methylphenyl)-3,3,3-trifluoro-2-hydroxypropyl)formamide trifluoroacetate] | < 0.1 | 0.1 to 0.5 | 100 to 500 |  |  |  | 
Cc1ccc(C(O)(C(N)=O)C(F)(F)F)cc1-c1cnc(N)c(N2CCN(C3CC3)C(=O)C2)n1 (stereo not drawn) [Example 112, 2-(3-(5-amino-6-(4-cyclopropyl-3-oxopiperazin-1-yl)pyrazin-2-yl)-4-methylphenyl)-3,3,3-trifluoro-2-hydroxypropanamide Trifluoroacetate] |  |  |  | < 0.1 | 0.1 to 0.5 | 100 to 500 | 
Cc1ccc(C(O)(C(N)=O)C(F)(F)F)cc1-c1cnc(N)c(N2CCN(C(C)(C)C)C(=O)C2)n1 (stereo not drawn) [Example 113, 2-(3-(5-amino-6-(4-tert-butyl-3-oxopiperazin-1-yl)pyrazin-2-yl)-4-methylphenyl)-3,3,3-trifluoro-2-hydroxypropanamide trifluoroacetate] |  |  |  | < 0.1 | 0.1 to 0.5 | 100 to 500 | 
Cc1ccc(C(O)(C(N)=O)C(F)(F)F)cc1-c1cnc(N)c(N2CCN(c3ccccc3C)CC2)n1 (stereo not drawn) [Example 118, 2-(3-(5-amino-6-(4-o-tolylpiperazin-1-yl)pyrazin-2-yl)-4-methylphenyl)-3,3,3-trifluoro-2-hydroxypropanamide trifluoroacetate] |  |  |  | < 0.1 | 0.1 to 0.5 | 500 to 1000 | 
Cc1ccc(C(O)(C(N)=O)C(F)(F)F)cc1-c1cnc(N)c(N2CCN(c3ccc(C#N)cc3)CC2)n1 (stereo not drawn) [Example 123, 2-(3-(5-amino-6-(4-(4-cyanophenyl)piperazin-1-yl)pyrazin-2-yl)-4-methylphenyl)-3,3,3-trifluoro-2-hydroxypropanamide trifluoroacetate] |  |  |  | < 0.1 | < 0.1 | 100 to 500 | 
Cc1ccc(C(O)(C(N)=O)C(F)(F)F)cc1-c1cnc(N)c(N2CC(=O)N(c3ccc(O)cc3)[C@@H](CO)C2)n1 (stereo partly drawn) [Example 124, 2-(3-(5-amino-6-((R)-3-(hydroxymethyl)-4-(4-hydroxyphenyl)-5-oxopiperazin-1-yl)pyrazin-2-yl)-4-methylphenyl)-3,3,3-trifluoro-2-hydroxypropanamide trifluoroacetate] |  |  |  |  | 0.1 to 0.5 | 500 to 1000 | IC50 [1]: < 0.1 µM
Cc1ccc(C(O)(C(N)=O)C(F)(F)F)cc1-c1cnc(N)c(N2CCN(CCC#N)CC2)n1 (stereo not drawn) [Example 125, 2-(3-(5-amino-6-(4-(2-cyanoethyl)piperazin-1-yl)pyrazin-2-yl)-4-methylphenyl)-3,3,3-trifluoro-2-hydroxypropanamide trifluoroacetate] |  |  |  |  |  |  | IC50 [1]: < 0.1 µM; IC50 [2]: < 0.1 µM; IC50 ([3]; Homo sapiens, THP-1, read-out: PI3Kγ_THP1_RPS6_ELISA IC50 (nM)): 100 to 500 nM
CCOc1ccccc1N1CCN(c2nc(-c3cc(C(O)(C(N)=O)C(F)(F)F)ccc3C)cnc2N)CC1 (stereo not drawn) [Example 129, 2-(3-(5-amino-6-(4-(2-ethoxyphenyl)piperazin-1-yl)pyrazin-2-yl)-4-methylphenyl)-3,3,3-trifluoro-2-hydroxypropanamide trifluoroacetate] |  |  |  | < 0.1 | 0.1 to 0.5 | 500 to 1000 | 
